Laboratory results from patent US11708348B2, “Protease inhibitors for treatment of coronavirus infections” (The Scripps Research Institute, priority 2021, dated 2023).

What follows are molecules tested on SARS-CoV-2 strain USA-WA1/2020 (assay: microbe, parasite or virus in culture). Details: Severe acute respiratory syndrome coronavirus 2, HeLa-ACE2, 24 h, HeLa-ACE2 cells, SARS-CoV-2 infection, 24 h; bound printed in cell; read-out: EC50, uM (Hela).
Format: cell-based
`O=C1NCC[C@H]1C[C@H](NC(=O)[C@@H]1CC2(CC2)CN1C(=O)C(O)C1CCS(=O)(=O)CC1)C(=O)COC(F)(F)F` (stereo partly drawn) [Compound 388, (6S)-5-(2-(l,l-dioxidotetrahydro-2H-thiopyran-4-yl)-2-hydroxyacetyl)-N-((S)-3-oxo-1-((S)-2-oxopyrrolidin-3-yl)-4-(trifluoromethoxy)butan-2-yl)-5-azaspiro[2.4]heptane-6-carboxamide] was tested, and the EC50 was > 1 µM.

Same assay, conditions: Severe acute respiratory syndrome coronavirus 2, HeLa-ACE2, 24 h, HeLa-ACE2 cells, SARS-CoV-2 infection, 24 h; class symbols; read-out: EC50, uM (Hela)
With `COc1ccccc1-c1cnc(C(=O)N[C@@H](CC(C)C)C(=O)N[C@@H](C[C@@H]2CCNC2=O)C(=O)COC(F)(F)F)[nH]1` [Compound 210, 5-(2-methoxyphenyl)-N-((S)-4-methyl-1-oxo-1-(((S)-3-oxo-1-((S)-2-oxopyrrolidin-3-yl)-4-(trifluoromethoxy)butan-2-yl)amino)pentan-2-yl)-1H-imidazole-2-carboxamide] the EC50 was < 0.05 µM. With `CC(C)(C)C[C@H](NC(=O)C(=O)NC1CC(F)(F)C1)C(=O)N[C@@H](C[C@@H]1CCNC1=O)C(=O)COC(F)(F)F` [Compound 179, Nl-(3,3-difluorocyclobutyl)-N2-((S)-4,4-dimethyl-1-oxo-1-(((S)-3-oxo-1-((S)-2-oxopyrrolidin-3-yl)-4-(trifluoromethoxy)butan-2-yl)amino)pentan-2-yl)oxalamide] the EC50 was < 0.05 µM. `CC(C)C[C@H](NC(=O)O[C@H]1CO[C@H]2OCC[C@H]21)C(=O)N[C@@H](C[C@@H]1CCNC1=O)C(=O)COc1c(F)c(F)cc(F)c1F` [Compound 150, (3R,3aS,6aR)-hexahydrofuro[2,3-b]furan-3-yl ((S)-4-methyl-1-oxo-1-(((S)-3-oxo-1-((S)-2-oxopyrrolidin-3-yl)-4-(2,3,5,6-tetrafluorophenoxy)butan-2-yl)amino)pentan-2-yl)carbamate] showed an EC50 of 0.2 to 0.5 µM. `CC(C)C[C@H](NC(=O)C(=O)Nc1c(C(C)C)cccc1C(C)C)C(=O)N[C@@H](C[C@@H]1CCNC1=O)C(=O)COC(F)(F)F` [Compound 159, Nl-(2,6-diisopropylphenyl)-N2-((S)-4-methyl-1-oxo-1-(((S)-3-oxo-1-((S)-2-oxopyrrolidin-3-yl)-4-(trifluoromethoxy)butan-2-yl)amino)pentan-2-yl)oxalamide] was tested, and the EC50 was < 0.05 µM. Molecule `CC(C)C[C@H](NC(=O)C(=O)N[C@H]1CCCOC1)C(=O)N[C@@H](C[C@@H]1CCNC1=O)C(=O)COc1c(F)c(F)cc(F)c1F` [Compound 103, N1-((S)-4-methyl-1-oxo-1-(((S)-3-oxo-1-((S)-2-oxopyrrolidin-3-yl)-4-(2,3,5,6-tetrafluorophenoxy)butan-2-yl)amino)pentan-2-yl)-N2-((S)-tetrahydro-2H-pyran-3-yl)oxalamide] has an EC50 of 0.05 to 0.2 µM.

Same assay, conditions: Severe acute respiratory syndrome coronavirus 2, HeLa-ACE2, 24 h, HeLa-ACE2 cells, SARS-CoV-2 infection, 24 h; read-out: EC50, uM (Hela)
For `O=C(NC1CCCCC1)C(=O)N1C[C@@H]2CCC[C@@H]2[C@H]1C(=O)N[C@@H](C[C@@H]1CCNC1=O)C(=O)COC(F)(F)F` [Compound 467, (1S,3aR,6aS)-2-(2-(cyclohexylamino)-2-oxoacetyl)-N-((S)-3-oxo-1-((S)-2-oxopyrrolidin-3-yl)-4-(trifluoromethoxy)butan-2-yl)octahydrocyclo-penta[c]pyrrole-1-carboxamide], the EC50 was 0.5 to 1 µM. `COC(C(=O)N1C[C@@H]2CCC[C@@H]2[C@H]1C(=O)N[C@@H](C[C@@H]1CCNC1=O)C(=O)COC(F)(F)F)c1cncc(Cl)n1` (stereo partly drawn) [Compound 621, (1S,3aR,6aS)-2-(2-(6-chloropyrazin-2-yl)-2-methoxyacetyl)-N-((S)-3-oxo-1-((S)-2-oxopyrrolidin-3-yl)-4-(trifluoromethoxy)butan-2-yl)octahydrocyclopenta[c]pyrrole-1-carboxamide] gave an EC50 of 0.05 to 0.2 µM. In the case of `CC(C)C[C@@H](O)C(=O)N1CCCCC[C@H]1C(=O)N[C@@H](C[C@@H]1CCNC1=O)C(=O)COC(F)(F)F` [Compound 639, (S)-1-((R)-2-hydroxy-4-methylpentanoyl)-N-((S)-3-oxo-1-((S)-2-oxopyrrolidin-3-yl)-4-(trifluoromethoxy)butan-2-yl)azepane-2-carboxamide], the EC50 is reported as < 0.05 µM.
